US5583115A, “Dialkyltiacumicin compounds” (Abbott Laboratories, priority 1995, dated 1996)
In brackets after ≈: the same amount, converted by molar mass. Where two headings read alike, the source gives them in different places.

Columns and labels:
Assay type in all cases: cell-based
C. ramosum = experiment: MIC agar dilution, anaerobic bacteria; conditions: Thomasclavelia ramosa, 20 h; Culture # 2482; read-out: MIC
Propionibacterium acnes = experiment: MIC agar dilution, anaerobic bacteria; conditions: Cutibacterium acnes, 20 h; Culture # 1775; read-out: MIC
B. vulgatus = experiment: MIC agar dilution, anaerobic bacteria
Fusobacterium species = experiment: MIC agar dilution, anaerobic bacteria; conditions: Fusobacterium, 20 h; Culture # 1770; read-out: MIC
Fusobacterium nucleatum = experiment: MIC agar dilution, anaerobic bacteria; conditions: Fusobacterium nucleatum, 20 h; Culture # 2478; read-out: MIC
B. bivius = experiment: MIC agar dilution, anaerobic bacteria; conditions: Prevotella bivia, 20 h; Culture # 2483; read-out: MIC
P. species = experiment: MIC agar dilution, anaerobic bacteria; conditions: 20 h; Culture # 1776; read-out: MIC
B. loescheii = experiment: MIC agar dilution, anaerobic bacteria; conditions: Hoylesella loescheii, 20 h; Culture # 1767; read-out: MIC
Clostridium perfringens = experiment: microbe, parasite or virus in culture; conditions: Clostridium perfringens, 20 h
C. difficile = experiment: MIC agar dilution, anaerobic bacteria; conditions: Clostridioides difficile, 20 h, read-out: MIC
[1] = tested on: Peptostreptococcus asaccharolyticus; experiment: MIC agar dilution, anaerobic bacteria; conditions: Peptoniphilus asaccharolyticus, 20 h; Culture # 1777; read-out: MIC
P. magnus = experiment: MIC agar dilution, anaerobic bacteria; conditions: Finegoldia magna, 20 h; Culture # 1778; read-out: MIC
B. thetaiotaomicron = experiment: MIC agar dilution, anaerobic bacteria
Bacteriodes fragilis = experiment: MIC agar dilution, anaerobic bacteria; conditions: 20 h, read-out: MIC
Veillonella parvula = experiment: MIC agar dilution, anaerobic bacteria; conditions: Veillonella parvula, 20 h; Culture # 2479; read-out: MIC
B. disiens = experiment: MIC agar dilution, anaerobic bacteria; conditions: Prevotella disiens, 20 h; Culture # 1763; read-out: MIC
P. anaerobius = experiment: MIC agar dilution, anaerobic bacteria; conditions: Peptostreptococcus anaerobius, 20 h; Culture # 1780; read-out: MIC

CCC[C@@H]1C[C@@H](C(=O)N[C@@H]([C@H]2O[C@H](SC)[C@H](O)[C@@H](O)[C@H]2O)[C@H](C)Cl)N(C)C1 [Clindamycin]
MIC (C. ramosum): 1 µg/mL (≈ 2.35 µM) | MIC (Propionibacterium acnes): 0.06 µg/mL (≈ 0.141 µM) | MIC (B. vulgatus; Culture # 2481): 0.03 µg/mL (≈ 0.0706 µM) | MIC (B. vulgatus; Phocaeicola vulgatus, 20 h, Culture # 1762, read-out: MIC): 0.03 µg/mL (≈ 0.0706 µM) | MIC (Fusobacterium species): 0.12 µg/mL (≈ 0.282 µM) | MIC (Fusobacterium nucleatum): 0.12 µg/mL (≈ 0.282 µM) | MIC (B. bivius): 0.015 µg/mL (≈ 0.0353 µM) | MIC (P. species): 0.06 µg/mL (≈ 0.141 µM) | MIC (B. loescheii): 0.06 µg/mL (≈ 0.141 µM) | MIC (Clostridium perfringens; Culture # 1771): 0.06 µg/mL (≈ 0.141 µM) | MIC (Clostridium perfringens; Culture # 1772): 0.5 µg/mL (≈ 1.18 µM) | MIC (Clostridium perfringens; Culture # 1773): 0.06 µg/mL (≈ 0.141 µM) | MIC (C. difficile; Culture # 1496): > 32 µg/mL | MIC (C. difficile; Culture # 1497): > 32 µg/mL | MIC (C. difficile; Culture # 1774): 0.5 µg/mL (≈ 1.18 µM) | MIC (C. difficile; Culture # 2025): 4 µg/mL (≈ 9.41 µM) | MIC (C. difficile; Culture # 2480): 4 µg/mL (≈ 9.41 µM) | MIC (C. difficile; Culture # 2528): 4 µg/mL (≈ 9.41 µM) | MIC (C. difficile; Culture # 2529): 4 µg/mL (≈ 9.41 µM) | MIC [1]: 0.03 µg/mL (≈ 0.0706 µM) | MIC (P. magnus): 1 µg/mL (≈ 2.35 µM) | MIC (B. thetaiotaomicron; Bacteroides thetaiotaomicron, 20 h, Culture # 1764, read-out: MIC): 4 µg/mL (≈ 9.41 µM) | MIC (B. thetaiotaomicron; Culture # 1765): 4 µg/mL (≈ 9.41 µM) | MIC (B. thetaiotaomicron; Culture # 1766): 4 µg/mL (≈ 9.41 µM) | MIC (Bacteriodes fragilis; Culture # 1756, Wilkins-Chalgren agar, 37° C., 48 hours): 1 µg/mL (≈ 2.35 µM) | MIC (Bacteriodes fragilis; Culture # 1757): 1 µg/mL (≈ 2.35 µM) | MIC (Bacteriodes fragilis; Culture # 1758): 0.5 µg/mL (≈ 1.18 µM) | MIC (Bacteriodes fragilis; Culture # 1999): 1 µg/mL (≈ 2.35 µM) | MIC (Veillonella parvula): 0.06 µg/mL (≈ 0.141 µM) | MIC (B. disiens): 0.015 µg/mL (≈ 0.0353 µM) | MIC (P. anaerobius): 0.06 µg/mL (≈ 0.141 µM)
